In ChEMBL document CHEMBL5236661, “A new selective inhibitor for IMP-1 metallo-β-lactamase, 3Z,5E-octa-3,5-diene-1,3,4-tricarboxylic acid-3,4-anhydride” (Bioorg Med Chem, 2023):
≈ marks a conversion by molar mass, not a printed value. Calls of active or inactive are those of the source. The calls are words filed in the database; no cut-off is given here.

Target: not listed separately
Experiment: Inhibition of bacterial Metallo-beta-lactamase IMP-1 using nitrocefin as substrate pre-incubated for 15 mins followed by substrate addition by microplate reader
Design: species or system Bacteria
Settings: not given
`CC/C=C/C1=C(c2ccc(O)c(O)c2)C(=O)OC1=O` gave an IC50 of 3.74 µg/mL (≈ 14.4 µM).

System: Escherichia coli
Experiment: Antibacterial activity against Escherichia coli KB366 expressing IMP-1 assessed as inhibition of bacterial growth at 100 ug in presence of meropenem incubated overnight by paper disk method
Format: functional
Settings: read-out: IZ
`CC/C=C/C1=C(c2ccc(O)c(O)c2)C(=O)OC1=O` showed a zone of inhibition at 100 µg/disc of 31 mm.

System: Escherichia coli
Experiment: Antibacterial activity against Escherichia coli KB366 expressing IMP-1 assessed as inhibition of bacterial growth at 30 ug in presence of meropenem incubated overnight by paper disk method
Format: functional
Settings: read-out: IZ
`CC/C=C/C1=C(c2ccc(O)c(O)c2)C(=O)OC1=O` showed a zone of inhibition at 30 µg/disc of 27 mm.

System: Escherichia coli
Experiment: Antibacterial activity against Escherichia coli KB366 expressing IMP-1 assessed as inhibition of bacterial growth at 10 ug in presence of meropenem incubated overnight by paper disk method
Format: functional
Settings: read-out: IZ
With `CC/C=C/C1=C(c2ccc(O)c(O)c2)C(=O)OC1=O` the zone of inhibition at 10 µg/disc was 23 mm.

System: Escherichia coli
Experiment: Antibacterial activity against Escherichia coli KB366 expressing IMP-1 assessed as inhibition of bacterial growth at 3 ug in presence of meropenem incubated overnight by paper disk method
Format: functional
Settings: read-out: IZ
With `CC/C=C/C1=C(c2ccc(O)c(O)c2)C(=O)OC1=O` the zone of inhibition at 3 µg/disc was 18 mm.

System: Escherichia coli
Experiment: Antibacterial activity against Escherichia coli KB366 expressing IMP-1 assessed as inhibition of bacterial growth at 1 ug in presence of meropenem incubated overnight by paper disk method
Format: functional
Settings: read-out: IZ
With `CC/C=C/C1=C(c2ccc(O)c(O)c2)C(=O)OC1=O` the zone of inhibition at 1 µg/disc was 16 mm.

System: Escherichia coli
Experiment: Antibacterial activity against Escherichia coli KB366 expressing IMP-1 assessed as inhibition of bacterial growth at 0.3 ug in presence of meropenem incubated overnight by paper disk method
Format: functional
Settings: read-out: IZ
`CC/C=C/C1=C(c2ccc(O)c(O)c2)C(=O)OC1=O` gave a zone of inhibition at 0.3 µg/disc of 11 mm.

System: Escherichia coli
Experiment: Antibacterial activity against Escherichia coli KB366 expressing IMP-1 assessed as inhibition of bacterial growth at 0.1 ug in presence of meropenem incubated overnight by paper disk method
Format: functional
Settings: dose 0.1 µg
For `CC/C=C/C1=C(c2ccc(O)c(O)c2)C(=O)OC1=O`, the “inhibition zone (IZ)” value was “inactive”.

System: Escherichia coli
Experiment: Antibacterial activity against Escherichia coli KB366 expressing IMP-1 assessed as inhibition of bacterial growth at 0.03 ug in presence of meropenem incubated overnight by paper disk method
Format: functional
Settings: dose 0.03 µg
With `CC/C=C/C1=C(c2ccc(O)c(O)c2)C(=O)OC1=O` the “inhibition zone (IZ)” value was “inactive”.

System: Escherichia coli
Experiment: Antibacterial activity against Escherichia coli KB366 expressing IMP-1 assessed as inhibition of bacterial growth at 0.01 ug in presence of meropenem incubated overnight by paper disk method
Format: functional
Settings: dose 0.01 µg
In the case of `CC/C=C/C1=C(c2ccc(O)c(O)c2)C(=O)OC1=O`, the “inhibition zone (IZ)” value is reported as “inactive”.

System: Escherichia coli
Experiment: Antibacterial activity against Escherichia coli KB366 expressing IMP-1 assessed as inhibition of bacterial growth at 100 ug in absence of meropenem incubated overnight by paper disk method
Format: functional, organism-based
Settings: dose 100.0 µg
In the case of `CC/C=C/C1=C(c2ccc(O)c(O)c2)C(=O)OC1=O`, the “inhibition zone (IZ)” value is reported as “inactive”.

System: Escherichia coli
Experiment: Antibacterial activity against Escherichia coli KB366 expressing IMP-1 assessed as inhibition of bacterial growth at 30 ug in absence of meropenem incubated overnight by paper disk method
Format: functional, organism-based
Settings: dose 30.0 µg
With `CC/C=C/C1=C(c2ccc(O)c(O)c2)C(=O)OC1=O` the “inhibition zone (IZ)” value was “inactive”.

System: Escherichia coli
Experiment: Antibacterial activity against Escherichia coli KB366 expressing IMP-1 assessed as inhibition of bacterial growth at 10 ug in absence of meropenem incubated overnight by paper disk method
Format: functional, organism-based
Settings: dose 10.0 µg
In the case of `CC/C=C/C1=C(c2ccc(O)c(O)c2)C(=O)OC1=O`, the “inhibition zone (IZ)” value is reported as “inactive”.

System: Escherichia coli
Experiment: Antibacterial activity against Escherichia coli KB366 expressing IMP-1 assessed as inhibition of bacterial growth at 3 ug in absence of meropenem incubated overnight by paper disk method
Format: functional, organism-based
Settings: dose 3.0 µg
For `CC/C=C/C1=C(c2ccc(O)c(O)c2)C(=O)OC1=O`, the “inhibition zone (IZ)” value was “inactive”.

System: Escherichia coli
Experiment: Antibacterial activity against Escherichia coli KB366 expressing IMP-1 assessed as inhibition of bacterial growth at 1 ug in absence of meropenem incubated overnight by paper disk method
Format: functional, organism-based
Settings: dose 1.0 µg
For `CC/C=C/C1=C(c2ccc(O)c(O)c2)C(=O)OC1=O`, the “inhibition zone (IZ)” value was “inactive”.

System: Escherichia coli
Experiment: Antibacterial activity against Escherichia coli KB366 expressing IMP-1 assessed as inhibition of bacterial growth at 0.3 ug in absence of meropenem incubated overnight by paper disk method
Format: functional, organism-based
Settings: dose 0.3 µg
For `CC/C=C/C1=C(c2ccc(O)c(O)c2)C(=O)OC1=O`, the “inhibition zone (IZ)” value was “inactive”.

System: Escherichia coli
Experiment: Antibacterial activity against Escherichia coli KB366 expressing IMP-1 assessed as inhibition of bacterial growth at 0.1 ug in absence of meropenem incubated overnight by paper disk method
Format: functional, organism-based
Settings: dose 0.1 µg
With `CC/C=C/C1=C(c2ccc(O)c(O)c2)C(=O)OC1=O` the “inhibition zone (IZ)” value was “inactive”.

System: Escherichia coli
Experiment: Antibacterial activity against Escherichia coli KB366 expressing IMP-1 assessed as inhibition of bacterial growth at 0.03 ug in absence of meropenem incubated overnight by paper disk method
Format: functional, organism-based
Settings: dose 0.03 µg
In the case of `CC/C=C/C1=C(c2ccc(O)c(O)c2)C(=O)OC1=O`, the “inhibition zone (IZ)” value is reported as “inactive”.

System: Escherichia coli
Experiment: Antibacterial activity against Escherichia coli KB366 expressing IMP-1 assessed as inhibition of bacterial growth at 0.01 ug in absence of meropenem incubated overnight by paper disk method
Format: functional, organism-based
Settings: dose 0.01 µg
For `CC/C=C/C1=C(c2ccc(O)c(O)c2)C(=O)OC1=O`, the “inhibition zone (IZ)” value was “inactive”.

System: Pseudomonas aeruginosa
Experiment: Antibacterial activity against Pseudomonas aeruginosa KB367 expressing IMP-1 assessed as inhibition of bacterial growth at 100 ug in presence of meropenem incubated overnight by paper disk method
Format: functional
Settings: read-out: IZ
With `CC/C=C/C1=C(c2ccc(O)c(O)c2)C(=O)OC1=O` the zone of inhibition at 100 µg/disc was 18 mm.

System: Pseudomonas aeruginosa
Experiment: Antibacterial activity against Pseudomonas aeruginosa KB367 expressing IMP-1 assessed as inhibition of bacterial growth at 30 ug in presence of meropenem incubated overnight by paper disk method
Format: functional
Settings: read-out: IZ
With `CC/C=C/C1=C(c2ccc(O)c(O)c2)C(=O)OC1=O` the zone of inhibition at 30 µg/disc was 14 mm.

System: Pseudomonas aeruginosa
Experiment: Antibacterial activity against Pseudomonas aeruginosa KB367 expressing IMP-1 assessed as inhibition of bacterial growth at 10 ug in presence of meropenem incubated overnight by paper disk method
Format: functional
Settings: read-out: IZ
Compound `CC/C=C/C1=C(c2ccc(O)c(O)c2)C(=O)OC1=O` has a zone of inhibition at 10 µg/disc of 9 mm.

System: Pseudomonas aeruginosa
Experiment: Antibacterial activity against Pseudomonas aeruginosa KB367 expressing IMP-1 assessed as inhibition of bacterial growth at 3 ug in presence of meropenem incubated overnight by paper disk method
Format: functional
Settings: dose 3.0 µg
For `CC/C=C/C1=C(c2ccc(O)c(O)c2)C(=O)OC1=O`, the “inhibition zone (IZ)” value was “inactive”.

System: Pseudomonas aeruginosa
Experiment: Antibacterial activity against Pseudomonas aeruginosa KB367 expressing IMP-1 assessed as inhibition of bacterial growth at 1 ug in presence of meropenem incubated overnight by paper disk method
Format: functional
Settings: dose 1.0 µg
For `CC/C=C/C1=C(c2ccc(O)c(O)c2)C(=O)OC1=O`, the “inhibition zone (IZ)” value was “inactive”.

System: Pseudomonas aeruginosa
Experiment: Antibacterial activity against Pseudomonas aeruginosa KB367 expressing IMP-1 assessed as inhibition of bacterial growth at 0.3 ug in presence of meropenem incubated overnight by paper disk method
Format: functional, organism-based
Settings: dose 0.3 µg
With `CC/C=C/C1=C(c2ccc(O)c(O)c2)C(=O)OC1=O` the “inhibition zone (IZ)” value was “inactive”.

System: Pseudomonas aeruginosa
Experiment: Antibacterial activity against Pseudomonas aeruginosa KB367 expressing IMP-1 assessed as inhibition of bacterial growth at 0.1 ug in presence of meropenem incubated overnight by paper disk method
Format: functional, organism-based
Settings: dose 0.1 µg
With `CC/C=C/C1=C(c2ccc(O)c(O)c2)C(=O)OC1=O` the “inhibition zone (IZ)” value was “inactive”.

System: Pseudomonas aeruginosa
Experiment: Antibacterial activity against Pseudomonas aeruginosa KB367 expressing IMP-1 assessed as inhibition of bacterial growth at 100 ug in absence of meropenem incubated overnight by paper disk method
Format: functional, organism-based
Settings: dose 100.0 µg
With `CC/C=C/C1=C(c2ccc(O)c(O)c2)C(=O)OC1=O` the “inhibition zone (IZ)” value was “inactive”.

System: Pseudomonas aeruginosa
Experiment: Antibacterial activity against Pseudomonas aeruginosa KB367 expressing IMP-1 assessed as inhibition of bacterial growth at 30 ug in absence of meropenem incubated overnight by paper disk method
Format: functional, organism-based
Settings: dose 30.0 µg
For `CC/C=C/C1=C(c2ccc(O)c(O)c2)C(=O)OC1=O`, the “inhibition zone (IZ)” value was “inactive”.

System: Pseudomonas aeruginosa
Experiment: Antibacterial activity against Pseudomonas aeruginosa KB367 expressing IMP-1 assessed as inhibition of bacterial growth at 10 ug in absence of meropenem incubated overnight by paper disk method
Format: functional, organism-based
Settings: dose 10.0 µg
In the case of `CC/C=C/C1=C(c2ccc(O)c(O)c2)C(=O)OC1=O`, the “inhibition zone (IZ)” value is reported as “inactive”.

System: Pseudomonas aeruginosa
Experiment: Antibacterial activity against Pseudomonas aeruginosa KB367 expressing IMP-1 assessed as inhibition of bacterial growth at 3 ug in absence of meropenem incubated overnight by paper disk method
Format: functional, organism-based
Settings: dose 3.0 µg
For `CC/C=C/C1=C(c2ccc(O)c(O)c2)C(=O)OC1=O`, the “inhibition zone (IZ)” value was “inactive”.

System: Pseudomonas aeruginosa
Experiment: Antibacterial activity against Pseudomonas aeruginosa KB367 expressing IMP-1 assessed as inhibition of bacterial growth at 1 ug in absence of meropenem incubated overnight by paper disk method
Format: functional, organism-based
Settings: dose 1.0 µg
In the case of `CC/C=C/C1=C(c2ccc(O)c(O)c2)C(=O)OC1=O`, the “inhibition zone (IZ)” value is reported as “inactive”.

System: Pseudomonas aeruginosa
Experiment: Antibacterial activity against Pseudomonas aeruginosa KB367 expressing IMP-1 assessed as inhibition of bacterial growth at 0.3 ug in absence of meropenem incubated overnight by paper disk method
Format: functional, organism-based
Settings: dose 0.3 µg
With `CC/C=C/C1=C(c2ccc(O)c(O)c2)C(=O)OC1=O` the “inhibition zone (IZ)” value was “inactive”.

System: Pseudomonas aeruginosa
Experiment: Antibacterial activity against Pseudomonas aeruginosa KB367 expressing IMP-1 assessed as inhibition of bacterial growth at 0.1 ug in absence of meropenem incubated overnight by paper disk method
Format: functional, organism-based
Settings: dose 0.1 µg
In the case of `CC/C=C/C1=C(c2ccc(O)c(O)c2)C(=O)OC1=O`, the “inhibition zone (IZ)” value is reported as “inactive”.
